In PubChem BioAssay AID330 (DTP/NCI, 2004) one finds T/C data, which are given here for 20 molecules.

“And” between values parts separate entries of the source, which are not always exact repeats. Identical values can stand only once. Toxic doses and inconclusive results are not listed.

The subject of this experiment is P388 leukemia ip, CD2F1 mice, survival T/C. The experiment is described as follows: NCI In Vivo Anticancer Drug Screen. Data for tumor model P388 Leukemia (intraperitoneal) in CD2F1 (CDF1) mice. As to conditions: endpoint: median survival time, higher = longer survival. The procedure, abridged:
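Mice carrying the transplanted tumor received test compound or vehicle. Survival was recorded in each group, and the value is the treated-group measurement divided by that of the vehicle-treated control group.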

Setting [1] is: dose: 100.0 mg/kg/injection, schedule: Q04DX003 (ip), vehicle: saline.
Setting [2] is: dose: 200.0 mg/kg/injection, schedule: Q04DX003 (ip), vehicle: saline.
[3] abbreviates: dose: 50.0 mg/kg/injection, schedule: Q01DX005 (ip), vehicle: saline with Tween-80.
Setting [4] is: dose: 60.0 mg/kg/injection, schedule: Q01DX005 (ip), vehicle: saline.
[5] abbreviates: dose: 120.0 mg/kg/injection, schedule: Q01DX005 (ip), vehicle: saline.

For `Oc1ccc(N=Cc2ccc3c(c2)OCO3)cc1`, the T/C was 109 % of control (dose: 12.5 mg/kg/injection, schedule: Q01DX009 (ip), vehicle: other); 111 % of control (dose: 25.0 mg/kg/injection, schedule: Q01DX009 (ip), vehicle: other); 94 % of control (dose: 50.0 mg/kg/injection, schedule: Q01DX009 (ip), vehicle: other); 113 % of control (dose: 100.0 mg/kg/injection, schedule: Q01DX009 (ip), vehicle: other); 111 % of control (dose: 200.0 mg/kg/injection, schedule: Q01DX009 (ip), vehicle: other); 108 % of control (dose: 400.0 mg/kg/injection, schedule: Q01DX009 (ip), vehicle: other).

On to `c1ccc2c(c1)OCCN1CCNC21` (stereo not drawn), for which the T/C is, setting by setting: under setting [1], 100 % of control; under setting [2], 102 % of control; (dose: 400.0 mg/kg/injection, schedule: Q04DX003 (ip), vehicle: saline) 101 % of control.

As for `O=C1CCC(O)=C1C1=NCCCC1`, the T/C reads like this: (dose: 100.0 mg/kg/injection, schedule: Q04DX002 (ip), vehicle: saline with Tween-80) 94 % of control; (dose: 200.0 mg/kg/injection, schedule: Q04DX002 (ip), vehicle: saline with Tween-80) 108 % of control; (dose: 400.0 mg/kg/injection, schedule: Q04DX002 (ip), vehicle: saline with Tween-80) 101 % of control.

On to `O=c1cc(O)c1=O`, for which the T/C (dose: 0.78 mg/kg/injection, schedule: Q01DX009 (ip), vehicle: saline) was 96 % of control; the T/C (dose: 1.56 mg/kg/injection, schedule: Q01DX009 (ip), vehicle: saline) was 109 % of control; the T/C (dose: 3.13 mg/kg/injection, schedule: Q01DX009 (ip), vehicle: saline) was 91 % of control; the T/C (dose: 6.25 mg/kg/injection, schedule: Q01DX009 (ip), vehicle: saline) is 98 % of control.

With `Cc1ccc(C2N3CCCN2CC3)cc1` (stereo not drawn), the T/C (dose: 50.0 mg/kg/injection, schedule: Q01DX009 (ip), vehicle: saline with Tween-80) was 104 % of control; the T/C (dose: 100.0 mg/kg/injection, schedule: Q01DX009 (ip), vehicle: saline with Tween-80) was 102 % of control; the T/C (dose: 200.0 mg/kg/injection, schedule: Q01DX009 (ip), vehicle: saline with Tween-80) was 109 % of control.

On to `O=C1CC[C@@H]2CCCC[C@@H]2C1`, for which the T/C reads like this: (dose: 12.5 mg/kg/injection, schedule: Q01DX009 (ip), vehicle: saline sonified) 104 % of control; (dose: 25.0 mg/kg/injection, schedule: Q01DX009 (ip), vehicle: saline sonified) 118 % of control; (dose: 50.0 mg/kg/injection, schedule: Q01DX009 (ip), vehicle: saline sonified) 100 % of control.

For `Cn1ccn2cnnc2c1=O`, the T/C (dose: 100.0 mg/kg/injection, schedule: Q01DX001 (ip), vehicle: saline with Tween-80) was 100 % of control; the T/C (dose: 200.0 mg/kg/injection, schedule: Q01DX001 (ip), vehicle: saline with Tween-80) is 106 % of control; the T/C (dose: 400.0 mg/kg/injection, schedule: Q01DX001 (ip), vehicle: saline with Tween-80) is 99 % of control.

For `COc1ccc2c(c1)CC[C@@H]1[C@@H]2CC[C@]2(C)C(=O)/C(=C/C=C/N(C)C)C[C@@H]12`, the T/C by setting is: (dose: 12.5 mg/kg/injection, schedule: Q01DX005 (ip), vehicle: saline with Tween-80) 90 % of control; (dose: 25.0 mg/kg/injection, schedule: Q01DX005 (ip), vehicle: saline with Tween-80) 91 % of control; under setting [3], 87 % of control and 89 % of control.

In the case of `N#CN(Cc1ccccc1)C(c1ccccc1)(c1ccccc1)c1ccccc1.[Br][Sn]([c]1ccccc1)([c]1ccccc1)[c]1ccccc1`, the T/C by setting is: (dose: 1.5 mg/kg/injection, schedule: Q01DX005 (ip), vehicle: saline with Tween-80) 98 % of control; (dose: 3.0 mg/kg/injection, schedule: Q01DX005 (ip), vehicle: saline with Tween-80) 100 % of control; (dose: 6.0 mg/kg/injection, schedule: Q01DX005 (ip), vehicle: saline with Tween-80) 101 % of control; (dose: 6.25 mg/kg/injection, schedule: Q01DX005 (ip), vehicle: saline with Tween-80) 94 % of control.

For the molecule `NC(=S)NNC(=O)CCC(=O)Nc1ccccc1Cl`, the T/C runs as follows: (dose: 60.0 mg/kg/injection, schedule: Q01DX005 (ip), vehicle: saline with Tween-80) 103 % of control; (dose: 120.0 mg/kg/injection, schedule: Q01DX005 (ip), vehicle: saline with Tween-80) 102 % of control; (dose: 240.0 mg/kg/injection, schedule: Q01DX005 (ip), vehicle: saline with Tween-80) 99 % of control.

For the molecule `C=C1C(=O)OC2CC3(C)CCCC(C)C3=CC12` (stereo not drawn), the T/C is 100 % of control (dose: 12.5 mg/kg/injection, schedule: Q01DX009 (ip), vehicle: Klucel (hydroxypropylcellulose) (HPC)); 96 % of control (dose: 25.0 mg/kg/injection, schedule: Q01DX009 (ip), vehicle: Klucel (hydroxypropylcellulose) (HPC)); 101 % of control (dose: 50.0 mg/kg/injection, schedule: Q01DX009 (ip), vehicle: Klucel (hydroxypropylcellulose) (HPC)); 100 % of control (dose: 100.0 mg/kg/injection, schedule: Q01DX009 (ip), vehicle: Klucel (hydroxypropylcellulose) (HPC)).

As for `CN1CCC(c2ccccc2)=C(Br)C1`, the T/C is, setting by setting: under setting [4], 102 % of control; under setting [5], 98 % of control.

`FC(F)(F)c1cc(NC(=S)SC2CCCCC2)ccc1Cl`: the T/C is 103 % of control (dose: 25.0 mg/kg/injection, schedule: Q01DX009 (ip), vehicle: saline); 100 % of control and 110 % of control (dose: 50.0 mg/kg/injection, schedule: Q01DX009 (ip), vehicle: saline); 107 % of control and 118 % of control (dose: 100.0 mg/kg/injection, schedule: Q01DX009 (ip), vehicle: saline); 121 % of control (dose: 200.0 mg/kg/injection, schedule: Q01DX009 (ip), vehicle: saline).

On to `S=C1CC2CCCC(C2)N1` (stereo not drawn), for which the T/C was 95 % of control (dose: 1.87 mg/kg/injection, schedule: Q01DX005 (ip), vehicle: Klucel (hydroxypropylcellulose) (HPC)); 100 % of control (dose: 3.75 mg/kg/injection, schedule: Q01DX005 (ip), vehicle: Klucel (hydroxypropylcellulose) (HPC)); 101 % of control and 94 % of control (dose: 7.5 mg/kg/injection, schedule: Q01DX005 (ip), vehicle: Klucel (hydroxypropylcellulose) (HPC)).

In the case of `O=C1c2ccccc2-c2nc3cncnc3nc21` (tested in a mixture with another compound), the T/C was 109 % of control (dose: 50.0 mg/kg/injection, schedule: Q04DX003 (ip), vehicle: saline); 109 % of control under setting [1]; 104 % of control under setting [2].

Turning to `O=C1C2C3C=CC(C3)C2C(=O)N1O` (stereo not drawn), the T/C under setting [3] is 101 % of control; the T/C (dose: 100.0 mg/kg/injection, schedule: Q01DX005 (ip), vehicle: saline with Tween-80) was 100 % of control; the T/C (dose: 200.0 mg/kg/injection, schedule: Q01DX005 (ip), vehicle: saline with Tween-80) was 100 % of control.

On to `O=C(c1ccccc1)C1C(=O)c2ccccc2C1=O`, for which the T/C under setting [4] is 95 % of control; the T/C under setting [5] was 99 % of control; the T/C (dose: 240.0 mg/kg/injection, schedule: Q01DX005 (ip), vehicle: saline) was 95 % of control.

Take `N#Cc1ccc(NN=NCCSCCO)cc1`: the T/C runs as follows: (dose: 12.5 mg/kg/injection, schedule: Q01DX009 (ip), vehicle: distilled water + alcohol) 96 % of control; (dose: 25.0 mg/kg/injection, schedule: Q01DX009 (ip), vehicle: distilled water + alcohol) 104 % of control; (dose: 50.0 mg/kg/injection, schedule: Q01DX009 (ip), vehicle: distilled water + alcohol) 104 % of control; (dose: 100.0 mg/kg/injection, schedule: Q01DX009 (ip), vehicle: distilled water + alcohol) 109 % of control.

For the molecule `C=Cc1cc(OC)c2c(c1)c(=O)oc1c2cc(OC)c2c(O)ccc(C3OC(C)C(O)C(C)(O)C3O)c21` (stereo not drawn), the T/C runs as follows: (dose: 1.56 mg/kg/injection, schedule: Q01DX005 (ip), vehicle: DMSO) 115 % of control; (dose: 3.12 mg/kg/injection, schedule: Q01DX005 (ip), vehicle: DMSO) 118 % of control; (dose: 12.5 mg/kg/injection, schedule: Q01DX005 (ip), vehicle: DMSO) 150 % of control; (dose: 25.0 mg/kg/injection, schedule: Q01DX005 (ip), vehicle: DMSO) 150 % of control; (dose: 50.0 mg/kg/injection, schedule: Q01DX005 (ip), vehicle: DMSO) 169 % of control.

In the case of `C=C1C(=O)OC2C1C(OC(=O)/C(C)=C/C)CC1(CO1)C1C(O)C3OC3(C)C21O` (stereo not drawn), the T/C (dose: 25.0 mg/kg/injection, schedule: Q04DX002 (ip), vehicle: saline with Tween-80) is 117 % of control and the T/C (dose: 50.0 mg/kg/injection, schedule: Q04DX002 (ip), vehicle: saline with Tween-80) was 117 % of control.
